We go through three compounds from patent publication US20120238562A1, “TREATMENT OF CANCER BY TARGETING MOLECULES THAT INFLUENCE MST1/STK4 SIGNALING” (CEDARS-SINAI MEDICAL CENTER, priority 2011, published 2012).

What all share (format): cell-based, human
Experiment [1] has as its system C4-2 cells. The experiment can be described thus: Cell proliferation by MTS assay, C4-2 cells. To be noted: for C4-2 cell growth / proliferation vs control (MTS, A490 nm): 48 h post treatment, vs DMSO, Ku0063794 1 μM, rapamycin 1 μM (p<0.1), BEZ-235 0.5 μM (p<0.002). The protocol: A, B) LNCaP (A) or C4-2 (B) cells were treated with control (DMSO), LY294002 (20 μM), Ku0063794 (1 μM), rapamycin (1 μM), LY294002+Ku0063794, or LY294002+Rapamycin. C) C4-2 cells were treated with DMSO or the dual PI3K and mTOR inhibitor, BEZ-235 (0.5 μM). Control or drug treatments were performed in T-medium supplemented with 5% FBS and 1% Pen/Strep. Cell proliferation was determined by MTS assay (A490 nm) at 48 h post treatment. D) Levels of endogenous total Mst1 by western blot in cytoplasmic (C) and nuclear (N) fractions from C4-2 cells that were transfected with scramble or Mst1 specific SiRNa. B-actin was used as a loading control. E) Effects of DMSO or CCI-779 on C4-2 cell proliferation with scramble or MSt1 knockdown conditions. Cell proliferation was determined by MTS (A490 nm) at 72 h post transfection. Data are representative of multiple experiments.
Cell proliferation was measured using CellTiter 96 AQueous with MTS reagent (Promega, Madison, Wis.). Briefly, cells in RPMI-medium plus 10% fetal bovine serum were added to 96-well plates at 4,000 cells per well in quadruplicate. After 24 h, LY290042, Ku0063794, Rapamycin, CCI-779 or BEZ-235 alone or combined were added, and cells were cultured for the indicated time. DMSO was used as a control. At 24 h post siRNA transfection, cells were treated with DMSO control or CCI-779 and incubated up to 72 h. MTS and phenazine methosulfate solution (20 μL/well) was added and the absorbance at 490 nm was recorded using a microplate reader (BMG Labtech; Cary, N.C.). For the clonogenic assay, 500 cells per well were seeded and cultured in 6-well plates for a week in the presence of Dox (0.5 μg/mL) in serum-fed conditions. The medium was changed every 3 days. Colonies were fixed with formaldehyde (4% v/v) and stained with crystal violet (0.5%). Representative views from triplicate experiments were photographed and quantified. […] After 14 days, colonies were photographed and quantified. […]
(Formazan colour is commonly taken as a measure of viable cells.)

The test system of experiment [2] is Mst1-T120 phosphorylation. The experiment can be described thus: Western blot of Mst1-T120 phosphorylation in cytoplasmic and nuclear fractions of C4-2 cells. To be noted: serum-deprived, 3 h post treatment, vs DMSO control, LY294002 20 μM, Ku0063794 1 μM, CCI-779 1 μM. The protocol: (§1) A) Schematic representation of the GST-Mst1 peptide with wild type (wt) T120 or T120A mutations. B) In vitro kinase assay with bacterially expressed and purified GST-only, GST-Mst1-T120 wt, or GST-Mst1-T120A mutant peptide and the recombinant pre-activated Akt kinase. Western blots were probed with pMst1-T120 antibody. Ponceau S stained purified GST, GST-Mst1-T120, or GST-Mst1-T120A mutant peptide. C) LNCaP cells were treated with DMSO (vehicle) control, a specific PI3K inhibitor, LY294002 (20 μM), or mTOR inhibitor, Ku0063794 (1 μM) in serum-starved conditions. […]
(§2) A nuclear extraction kit according to the manufacturer's protocol (Affymetrix, Santa Clara, Calif.) was used to isolate cytoplasmic and nuclear fractions. […] Protein concentrations were determined by the Lowry method (Bio-Rad, Hercules, Calif.). […] Signals were detected using SuperSignal West Pico Chemiluminescence Substrate (Thermo Scientific, Roxford, Ill.).
(§3) The inventors generated GST-Mst1 peptide with T120-wt or T120A mutations (FIG. 2A). […] The inventors then assessed the effects of PI3K-Akt inhibition on Mst1-T120 phosphorylation in its respective location in the cell. […] The levels of phospho-Mst1-T120 were assessed by western blot in cytoplasmic and nuclear fractions. […]
Background: A western blot detects proteins with antibodies after separation by electrophoresis.

The test system of experiment [3] is Mst1. The experiment can be described thus: Western blot of Mst1 nuclear accumulation in C4-2 cells. To be noted: Ku0063794 1 μM or CCI-779 1 μM, 3 h post treatment. The protocol:
A) Schematic representation of the GST-Mst1 peptide with wild type (wt) T120 or T120A mutations. B) In vitro kinase assay with bacterially expressed and purified GST-only, GST-Mst1-T120 wt, or GST-Mst1-T120A mutant peptide and the recombinant pre-activated Akt kinase. Western blots were probed with pMst1-T120 antibody. Ponceau S stained purified GST, GST-Mst1-T120, or GST-Mst1-T120A mutant peptide. C) LNCaP cells were treated with DMSO (vehicle) control, a specific PI3K inhibitor, LY294002 (20 μM), or mTOR inhibitor, Ku0063794 (1 μM) in serum-starved conditions. D) C4-2 cells were treated with Temsirolimus (CCI-779), an mTORC1 inhibitor (1 μM) in addition to DMSO, LY294002 and Ku0063794 under the same experimental conditions as in “C”. E) C4-2 cells treated with DMSO or LY294002 and CCI-779. Control/DMSO or drug treatment in “C,” “D,” or “E” was performed under serum-deprived conditions. Western blots were probed with antibodies to corresponding proteins at 3 h post treatment. Lam-A/C:Lamin-A/C. […]
A nuclear extraction kit according to the manufacturer's protocol (Affymetrix, Santa Clara, Calif.) was used to isolate cytoplasmic and nuclear fractions. […] Protein concentrations were determined by the Lowry method (Bio-Rad, Hercules, Calif.). […] Signals were detected using SuperSignal West Pico Chemiluminescence Substrate (Thermo Scientific, Roxford, Ill.). […]

Experiment [4] deals with Akt. The experiment can be described thus: Akt activation in C4-2 cells under mTOR inhibition. To be noted: castration-resistant prostate cancer cells (C4-2), same conditions as Mst1-T120 hyper-phosphorylation. On the procedure:
A) Schematic representation of the GST-Mst1 peptide with wild type (wt) T120 or T120A mutations. B) In vitro kinase assay with bacterially expressed and purified GST-only, GST-Mst1-T120 wt, or GST-Mst1-T120A mutant peptide and the recombinant pre-activated Akt kinase. Western blots were probed with pMst1-T120 antibody. Ponceau S stained purified GST, GST-Mst1-T120, or GST-Mst1-T120A mutant peptide. C) LNCaP cells were treated with DMSO (vehicle) control, a specific PI3K inhibitor, LY294002 (20 μM), or mTOR inhibitor, Ku0063794 (1 μM) in serum-starved conditions. D) C4-2 cells were treated with Temsirolimus (CCI-779), an mTORC1 inhibitor (1 μM) in addition to DMSO, LY294002 and Ku0063794 under the same experimental conditions as in “C”. E) C4-2 cells treated with DMSO or LY294002 and CCI-779. Control/DMSO or drug treatment in “C,” “D,” or “E” was performed under serum-deprived conditions. Western blots were probed with antibodies to corresponding proteins at 3 h post treatment. Lam-A/C:Lamin-A/C. Data are representative of multiple experiments.
Consistent with this finding, PI3K and mTORC1 inhibition combined synergistically to prevent the proliferation of C4-2 cells compared to a single agent (FIG. 3B). […]

Experiment [5] has as its system Mst1-T183 phosphorylation. The experiment can be described thus: Mst1-T183 phosphorylation in treated prostate cancer cells. To be noted: prostate cancer cells treated with inhibitor. The protocol: However, the levels of […] phosphorylation were unchanged when cells were treated with a potent mTOR inhibitor, Ku0063794, (FIG. 3). […] Based on these observations, the inventors therefore conclude that Mst1-phosphorylation at T120 or at […] are unrelated events or is modulated by different mechanisms, at least in prostate cancer cells.

Experiment [6] relates to Mst1-T120 phosphorylation. The experiment can be described thus: Western blot of Mst1-T120 phosphorylation in cytoplasmic and nuclear fractions of LNCaP cells. To be noted: serum-starved, 3 h post treatment, vs DMSO control, LY294002 20 μM, Ku0063794 1 μM. On the procedure:
as §1, §2, §3

“Also recorded” adds a separate entry of the source.

As to `Cn1c(=O)n(-c2ccc(C(C)(C)C#N)cc2)c2c3cc(-c4cnc5ccccc5c4)ccc3ncc21` [BEZ-235], in experiment [1], the “C4-2 cell growth / proliferation vs control (MTS, A490 nm)” value is “significantly inhibited”.

As to `CO[C@H]1C[C@@H]2CC[C@@H](C)[C@@](O)(O2)C(=O)C(=O)N2CCCC[C@H]2C(=O)O[C@H]([C@H](C)C[C@@H]2CC[C@@H](OC(=O)C(C)(CO)CO)[C@H](OC)C2)CC(=O)[C@H](C)/C=C(\C)[C@@H](O)[C@@H](OC)C(=O)[C@H](C)C[C@H](C)/C=C/C=C/C=C/1C` [CCI-779, temsirolimus], the Mst1-T120 phosphorylation result in experiment [2] is “hyper-phosphorylation; also recorded: hyperphosphorylation”. Besides, in experiment [3], the Mst1 nuclear accumulation entry was “increase”. In addition, the “C4-2 cell proliferation under Mst1 knockdown vs scramble siRNA (MTS, A490 nm)” value in experiment [1] (Mst1 siRNA vs scramble siRNA, CCI-779 vs DMSO, 72 h post transfection) was “sensitized”. In addition, the Akt activation entry in experiment [4] was “did not observe Akt activation”.

`COc1ccc(-c2ccc3c(N4CCOCC4)nc(N4C[C@@H](C)O[C@@H](C)C4)nc3n2)cc1CO` [Ku0063794]: the Mst1-T183 phosphorylation result in experiment [5] was “unchanged”. The “Mst1-T120 phosphorylation in cell nuclei” value in experiment [6] is on record as “unable to prevent”. In addition, in experiment [2], the Mst1-T120 phosphorylation entry was “hyper-phosphorylation; also recorded: hyperphosphorylation”. Besides, the Mst1 nuclear accumulation entry in experiment [3] is on record as “increase”. The “C4-2 cell growth / proliferation vs control (MTS, A490 nm)” value in experiment [1] is “failed to significantly inhibit”. Besides, the Akt activation entry in experiment [4] is “did not observe Akt activation”.
